Laboratory results taken from publication PMC5024129, “Adipokinetic hormones and their G protein-coupled receptors emerged in Lophotrochozoa” (Scientific Reports, 2016).
Square brackets hold non-standard residues; d marks the D form. Ends that are not written are not given here. Peptide text beside a SMILES is read from it. pGlu = O=C1CC[C@@H](C(=O)O)N1

Experiments:
[1] = molecular target: C. gigas AKHR1-A (Magallana gigas, UniProt B1VCT5); experiment: Bioluminescence assay in CHO/G-16 cells stably expressing C. gigas AKHR1-A (apoaequorin, IP3/Ca2+ cascade); type: cell-based, Crassostrea gigas; settings: 10^−6 M peptide, CHO/G-16/AKHR1-A cells, Fig. 5A, n = 3
Chain of C. gigas AKHR1-A (B1VCT5 entry or part of it): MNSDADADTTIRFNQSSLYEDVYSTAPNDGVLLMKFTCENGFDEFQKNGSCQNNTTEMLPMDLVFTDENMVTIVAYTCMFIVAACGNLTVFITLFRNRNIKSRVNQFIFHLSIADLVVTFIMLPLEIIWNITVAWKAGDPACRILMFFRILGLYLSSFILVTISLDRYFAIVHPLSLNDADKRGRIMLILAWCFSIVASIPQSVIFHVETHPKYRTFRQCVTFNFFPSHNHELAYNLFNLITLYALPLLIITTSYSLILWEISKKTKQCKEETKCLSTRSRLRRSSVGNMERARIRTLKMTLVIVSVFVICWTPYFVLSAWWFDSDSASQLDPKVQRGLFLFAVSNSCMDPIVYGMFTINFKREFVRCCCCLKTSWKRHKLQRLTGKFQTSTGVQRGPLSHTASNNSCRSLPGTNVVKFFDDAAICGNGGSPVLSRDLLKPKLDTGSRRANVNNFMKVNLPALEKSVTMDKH
From the text: (§1) We stably expressed all four cloned splice variants from C. gigas AKHR1 (Fig. 2) in Chinese Hamster Ovary (CHO) cells. These cells were also stably transfected with the promiscuous G protein, G-16, and transiently transfected with apoaequorin. An activation of the receptor by its ligand in these pretreated CHO cells would result in an IP3/Ca^2+ second messenger cascade, which could be measured as a bioluminescence signal.
(§2) CHO cells stably expressing the human G-protein 16 (CHO/G16) were maintained in DMEM/F-12 + GlutaMAX^TM (Life Technologies) medium with 200 μg/ml hygromycin B (Invitrogen), 5% fetal calf serum (FCS) (Life Technologies), 1% (v/v) glutaMAX (Life Technologies), 100 U/ml penicillin(Life Technologies), and 100 μg/ml streptomycin (Life Technologies). To express the AKH receptor, 5 × 10^4 CHO/G16 cells were transfected with 3 μg pIRES vector containing the AKH receptor insert using JetPEI® transfection reagent (Polyplus), while 3 μg empty pIRES vector was used as a control. All tested peptides were from Genemed Synthesis, Inc. and initially dissolved in demethylformamide (DMF) followed by dilution in PBS.

[2] = test system: C. gigas AKHR1-C; experiment: Bioluminescence assay in CHO/G-16 cells expressing C. gigas AKHR1 splice variant C; type: cell-based, Crassostrea gigas
From the text: as §1, §2

[3] = test system: C. gigas AKHR1-D; experiment: Bioluminescence assay in CHO/G-16 cells expressing C. gigas AKHR1 splice variant D; type: cell-based, Crassostrea gigas
From the text: as §1, §2

[4] = test system: C. gigas AKHR2; experiment: Bioluminescence assay in CHO/G-16 cells expressing C. gigas AKHR2; type: cell-based, Crassostrea gigas
Procedure: as §2, with “This receptor, therefore, remains an orphan. CHO cells” for “CHO cells”, “in PBS. The purities of the peptides and peptide contents were determined by HPCL and mass spectrometry as supplied by Genemed Synthesis. The bioluminescence assay was performed as described earlier[9][30] using a Victor2 1420 Multilabel Counter (Perkin Elmer).” for “in PBS.”

[5] = test system: Aplysia californica; settings: injection into the slug; cited from earlier work
From the text: Johnson et al.[34] have recently shown that an AKH is present in the sea slug Aplysia californica. […] These findings are difficult to reconcile with our above considerations, but our own considerations are, of course, only hypothetical.

Compound | Bioluminescence response (activation) of AKHR1-A [1] | Activation of AKHR1 splice variant C [2] | Activation of AKHR1 splice variant D [3] | Activation of AKHR2 [4] | Effect on defecation [5] | Effect on feeding [5] | Influence on hemolymph glucose concentrations [5]
CC(C)[C@H](NC(=O)[C@@H]1CCC(=O)N1)C(=O)N[C@@H](CO)C(=O)N[C@@H](Cc1ccccc1)C(=O)N[C@@H](CO)C(=O)N[C@H](C(=O)N[C@@H](CC(N)=O)C(=O)N[C@@H](Cc1c[nH]c2ccccc12)C(=O)NCC(=O)N[C@@H](CO)C(N)=O)[C@@H](C)O [C. gigas AKH] ([pGlu]VSFSTNWGS-NH2) | can be activated | could not be activated | could not be activated | could not be activated |  |  | 
Dm-CCAP: D. melanogaster crustacean cardioactive peptide (PFCNAFTGC; ends and bridges not checked; cysteine pairing not given here; UniProt Q9VCW0 52-60, looked up) | not active |  |  |  |  |  | 
pQIHFSPDWGTamide [Aplysia californica AKH, molluscan true AKH of the sea slug] |  |  |  |  | induce defecation | reduce feeding | no influence
